What was measured:
[1] = target: T1, Neuropeptide Y receptor type 2 (Rattus norvegicus, UniProt Q9ERC0); assay: Compound was tested for binding affinity against neuropeptide Y2 (NPY2) receptor from rat hippocampi.; type: tissue-based, Hippocampus
T1 sequence (Q9ERC0 whole entry): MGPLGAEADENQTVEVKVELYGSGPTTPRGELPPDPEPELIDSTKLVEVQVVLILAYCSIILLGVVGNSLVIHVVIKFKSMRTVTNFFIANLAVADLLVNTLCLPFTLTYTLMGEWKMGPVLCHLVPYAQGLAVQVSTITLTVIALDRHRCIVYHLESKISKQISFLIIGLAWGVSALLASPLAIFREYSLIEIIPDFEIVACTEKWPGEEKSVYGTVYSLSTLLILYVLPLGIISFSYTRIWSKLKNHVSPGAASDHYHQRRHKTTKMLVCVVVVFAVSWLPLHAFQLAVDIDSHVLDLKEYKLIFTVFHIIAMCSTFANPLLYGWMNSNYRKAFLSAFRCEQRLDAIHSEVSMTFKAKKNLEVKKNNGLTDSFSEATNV

[2] = target: T2, Neuropeptide Y receptor type 1 (Homo sapiens, UniProt P25929); assay: Compound was tested for binding affinity against neuropeptide Y1 (NPY1) receptor from SK-N-MC membranes using [125I]PYY as radioligand
T2 sequence (P25929 whole entry): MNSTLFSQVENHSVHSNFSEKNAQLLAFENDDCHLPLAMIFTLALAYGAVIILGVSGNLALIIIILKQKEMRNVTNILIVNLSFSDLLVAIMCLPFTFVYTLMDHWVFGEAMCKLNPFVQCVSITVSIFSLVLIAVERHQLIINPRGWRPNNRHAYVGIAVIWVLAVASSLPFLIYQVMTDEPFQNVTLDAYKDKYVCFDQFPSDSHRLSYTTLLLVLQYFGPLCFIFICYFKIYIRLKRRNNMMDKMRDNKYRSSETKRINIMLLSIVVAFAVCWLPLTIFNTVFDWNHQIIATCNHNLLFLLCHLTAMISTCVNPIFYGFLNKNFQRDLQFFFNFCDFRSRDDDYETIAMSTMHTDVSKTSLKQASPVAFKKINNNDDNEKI

Structure (SMILES)	IC50 [1] [µM]	Ki [2] [µM]	Ki [1] [µM]
CC(C)c1ccccc1S(=O)(=O)c1cc(N)c2ncccc2c1[N+](=O)[O-]	10		
Nc1ccc(Sc2cc(N)c3ncccc3c2[N+](=O)[O-])cc1		> 10	
Nc1cc(NS(=O)(=O)c2ccccc2)c([N+](=O)[O-])c2cccnc12		> 10	
CS(=O)(=O)c1cc(N)c2ncccc2c1[N+](=O)[O-]		> 10	
Nc1ccc([S+]([O-])c2cc(N)c3ncccc3c2[N+](=O)[O-])cc1 (configuration not stated)		1.25	
Nc1ccc(S(=O)(=O)c2cc(N)c3ncccc3c2)cc1		> 10	

Now from value to molecule:

IC50 [1] [µM]	Ki [2] [µM]	Ki [1] [µM]	Structure (SMILES)
	> 10		Nc1ccc(S(=O)(=O)c2cc(N)c3ncccc3c2N)cc1
	> 10		Cc1cc(S(=O)(=O)c2ccccc2)c([N+](=O)[O-])c2cccnc12
	> 10		Nc1ccc(S(=O)(=O)c2ccc3ncccc3c2[N+](=O)[O-])cc1
	0.282	> 10	Nc1ccc(S(=O)(=O)c2cc(N)c3ncccc3c2[N+](=O)[O-])cc1
	> 10		CNc1cc(S(=O)(=O)c2ccccc2)c([N+](=O)[O-])c2cccnc12

Reference: ChEMBL document CHEMBL1129132, “8-amino-6-(arylsulphonyl)-5-nitroquinolines: novel nonpeptide neuropeptide Y1 receptor antagonists” (Bioorg Med Chem Lett, 1996)
